Data from publication PMC7915026, “Sulfaguanidine Hybrid with Some New Pyridine-2-One Derivatives: Design, Synthesis, and Antimicrobial Activity against Multidrug-Resistant Bacteria as Dual DNA Gyrase and DHFR Inhibitors” (Antibiotics, 2021).
In brackets after ≈: the same amount, converted by molar mass. Like-named read-outs stand apart in the source and are kept apart here.

Columns and labels:
C. albicans (ATCC 10231) [1] = assay: MIC and MFC determination; format: cell-based
[2] = test system: F. oxysporum (RCMB 008002); assay: MIC and MFC determination; format: cell-based
[3] = test system: F. oxysporum (RCMB 008002); assay: Inhibition zone, paper disk/agar diffusion; format: cell-based; settings: Na = no activity
Description: (§1) The antimicrobial activity performed at the bacteriology laboratory, Botany and Microbiology Department, Faculty of Science, Al-Azhar University, Cairo, Egypt. The inhibition zone (IZ) of the tested derivatives expressed as the diameter (mm) according to the agar plate diffusion method.

C. albicans (ATCC 10231) [4] = assay: Inhibition zone, paper disk/agar diffusion; format: cell-based; settings: Na = no activity
Description: as §1

E. coli ATCC 25922 = assay: Inhibition zone, paper disk/agar diffusion; format: cell-based; settings: E. coli; Na = no activity
Description: as §1

S. aureus ATCC 29213 = assay: Inhibition zone, paper disk/agar diffusion; format: cell-based; settings: S. aureus; Na = no activity
Description: as §1

S. typhi ATCC 6539 = assay: Inhibition zone, paper disk/agar diffusion; format: cell-based; settings: S. typhi; Na = no activity
Description: as §1

P. aeruginosa ATCC 27853 = assay: Inhibition zone, paper disk/agar diffusion; format: cell-based; settings: P. aeruginosa; Na = no activity
Description: as §1

E. faecalis ATCC 29212 = assay: Inhibition zone, paper disk/agar diffusion; format: cell-based; settings: E. faecalis; Na = no activity
Description: as §1

B. subtilis ATCC 6633 = assay: Inhibition zone, paper disk/agar diffusion; format: cell-based; settings: B. subtilis; Na = no activity
Description: as §1

## C[C@@H]1[C@H](O)[C@@H](C)/C=C/C=C/C=C/C=C/C=C/C=C/C=C/[C@H](O[C@@H]2O[C@H](C)[C@@H](O)[C@H](N)[C@@H]2O)C[C@@H]2O[C@](O)(C[C@@H](O)C[C@@H](O)[C@H](O)CC[C@@H](O)C[C@@H](O)CC(=O)O[C@H]1C)C[C@H](O)[C@H]2C(=O)O [Amphotericin B, amphotericin B, reference compound]
C. albicans (ATCC 10231) [1]; Candida albicans, ATCC10231, read-out: MFC
  MFC: 37.3 µM (≈ 34.4 µg/mL)
C. albicans (ATCC 10231) [1]; Candida albicans, ATCC10231, read-out: MIC
  MIC: 16.8 µM (≈ 15.5 µg/mL)
C. albicans (ATCC 10231) [1]; listed as Amp. B
  MFC: 37.26 ± 0.65 µM (≈ 34.4 µg/mL)
  MIC: 16.81 ± 0.29 µM (≈ 15.5 µg/mL)
[2]; Fusarium oxysporum, RCMB008002, read-out: MFC
  MFC: 70.6 µM (≈ 65.3 µg/mL)
[2]; Fusarium oxysporum, RCMB008002, read-out: MIC
  MIC: 33.6 µM (≈ 31.1 µg/mL)
[2]; listed as Amp. B
  MFC: 70.62 ± 0.76 µM (≈ 65.3 µg/mL)
  MIC: 33.63 ± 0.98 µM (≈ 31.1 µg/mL)
[3]
  Mean Diameter of the Inhibition Zone: 18 ± 0.32 mm
C. albicans (ATCC 10231) [4]
  Mean Diameter of the Inhibition Zone: 22 ± 0.2 mm
C. albicans (ATCC 10231) [4]; listed as S2
  Mean Diameter of the Inhibition Zone: 22 ± 0.20 mm

## N#CCC(=O)Nc1ccc(S(=O)(=O)NC(=N)N)cc1 [Compound 1, N-(4-(N-Carbamimidoylsulfamoyl)phenyl)-2-cyanoacetamide]
other
  melting point: 172 to 174 °C
E. coli ATCC 25922
  Mean Diameter of the Inhibition Zone: 16 ± 0.35 mm
S. aureus ATCC 29213
  Mean Diameter of the Inhibition Zone: 17 ± 0.50 mm
S. typhi ATCC 6539
  Mean Diameter of the Inhibition Zone: 17 ± 0.54 mm
P. aeruginosa ATCC 27853
  Mean Diameter of the Inhibition Zone: 20±0.65 mm
E. faecalis ATCC 29212
  Mean Diameter of the Inhibition Zone: 19 ± 0.70 mm
B. subtilis ATCC 6633
  Mean Diameter of the Inhibition Zone: 14 ± 0.70 mm
[3]
  Mean Diameter of the Inhibition Zone: 13 ± 0.54 mm
C. albicans (ATCC 10231) [4]
  Mean Diameter of the Inhibition Zone: 15 ± 0.63 mm

## COc1ccc(-c2c(C#N)c(N)n(-c3ccc(S(=O)(=O)NC(=N)N)cc3)c(=O)c2C#N)cc1 [Compound 3b, 4-(6-Amino-3,5-dicyano-4-(4-methoxyphenyl)-2-oxopyridin-1(2H)-yl)-N-carbamimidoylbenzenesulfonamide]
other
  melting point: 256 to 258 °C
E. coli ATCC 25922
  Mean Diameter of the Inhibition Zone: 21 ± 0.11 mm
S. typhi ATCC 6539
  Mean Diameter of the Inhibition Zone: 14 ± 0.16 mm
E. faecalis ATCC 29212
  Mean Diameter of the Inhibition Zone: 19 ± 0.65 mm
[3]
  Mean Diameter of the Inhibition Zone: no activity
C. albicans (ATCC 10231) [4]
  Mean Diameter of the Inhibition Zone: 12 ± 0.36 mm

## N#Cc1c(-c2ccc(O)cc2)c(C#N)c(=O)n(-c2ccc(S(=O)(=O)NC(=N)N)cc2)c1N [Compound 3c, 4-(6-Amino-3,5-dicyano-4-(4-hydroxyphenyl)-2-oxopyridin-1(2H)-yl)-N-carbamimidoylbenzenesulfonamide]
other
  melting point: 265 to 268 °C
S. typhi ATCC 6539
  Mean Diameter of the Inhibition Zone: 20 ± 0.33 mm
P. aeruginosa ATCC 27853
  Mean Diameter of the Inhibition Zone: 17 ± 0.20 mm
E. faecalis ATCC 29212
  Mean Diameter of the Inhibition Zone: 19 ± 0.33 mm
[3]
  Mean Diameter of the Inhibition Zone: 19 ± 0.55 mm
C. albicans (ATCC 10231) [4]
  Mean Diameter of the Inhibition Zone: 22 ± 0.19 mm

## COc1ccc(-c2c(C#N)c(N)n(-c3ccc(S(=O)(=O)NC(=N)N)cc3)c(=O)c2C#N)cc1O [Compound 3d, 4-(6-Amino-3,5-dicyano-4-(3-hydroxy-4-methoxyphenyl)-2-oxopyridin-1(2H)-yl)-N-carbamimidoylbenzenesulfonamide]
other
  melting point: 250 to 252 °C
E. coli ATCC 25922
  Mean Diameter of the Inhibition Zone: 22 ± 0.43 mm
S. aureus ATCC 29213
  Mean Diameter of the Inhibition Zone: 23 ± 0.29 mm
S. typhi ATCC 6539
  Mean Diameter of the Inhibition Zone: 15 ± 0.36 mm
E. faecalis ATCC 29212
  Mean Diameter of the Inhibition Zone: 21 ± 0.54 mm
B. subtilis ATCC 6633
  Mean Diameter of the Inhibition Zone: 20 ± 0.11 mm
[3]
  Mean Diameter of the Inhibition Zone: no activity
C. albicans (ATCC 10231) [4]
  Mean Diameter of the Inhibition Zone: 17 ± 0.21 mm

## COc1ccc(-c2c(C(=O)Nc3ccc(S(=O)(=O)NC(=N)N)cc3)c(N)n(C3CCCCC3)c(=O)c2C#N)cc1 [Compound 4, 2-Amino-N-(4-(N-carbamimidoylsulfamoyl)phenyl)-5-cyano-1-cyclohexyl-4-(4-methoxyphenyl)-6-oxo-1,6-dihydropyridine-3-carboxamide]
other
  melting point: 272 to 274 °C
S. aureus ATCC 29213
  Mean Diameter of the Inhibition Zone: 24 ± 0.33 mm
S. typhi ATCC 6539
  Mean Diameter of the Inhibition Zone: no activity
P. aeruginosa ATCC 27853
  Mean Diameter of the Inhibition Zone: 23 ± 0.74 mm
E. faecalis ATCC 29212
  Mean Diameter of the Inhibition Zone: 25 ± 0.35 mm
B. subtilis ATCC 6633
  Mean Diameter of the Inhibition Zone: 23 ± 0.22 mm
[3]
  Mean Diameter of the Inhibition Zone: no activity
C. albicans (ATCC 10231) [4]
  Mean Diameter of the Inhibition Zone: 20 ± 0.50 mm

## COc1ccc(-c2c(C(=O)Nc3ccc(S(=O)(=O)NC(=N)N)cc3)c(N)[nH]c(=O)c2C#N)cc1 [Compound 6, 2-Amino-N-(4-(carbamimidoylsulfamoyl)phenyl)-5-cyano-4-(4-methoxyphenyl)-6-oxo-1,6-dihydropyridine-3-carboxamide]
other
  melting point: 265 to 268 °C
S. aureus ATCC 29213
  Mean Diameter of the Inhibition Zone: 16 ± 0.54 mm
S. typhi ATCC 6539
  Mean Diameter of the Inhibition Zone: 12 ± 0.61 mm
B. subtilis ATCC 6633
  Mean Diameter of the Inhibition Zone: 18 ± 0.12 mm
[3]
  Mean Diameter of the Inhibition Zone: 14 ± 0.38 mm
C. albicans (ATCC 10231) [4]
  Mean Diameter of the Inhibition Zone: 18 ± 0.20 mm

## N#Cc1c(N)cc(N)n(-c2ccc(S(=O)(=O)NC(=N)N)cc2)c1=O [Compound 7, N-Carbamimidoyl-4-(4,6-diamino-3-cyano-2-oxopyridin-1(2H)-yl) benzenesulfonamide]
other
  melting point: 260 °C
P. aeruginosa ATCC 27853
  Mean Diameter of the Inhibition Zone: 12 ± 0.63 mm
E. faecalis ATCC 29212
  Mean Diameter of the Inhibition Zone: 14 ± 0.47 mm
B. subtilis ATCC 6633
  Mean Diameter of the Inhibition Zone: 13 ± 0.41 mm
[3]
  Mean Diameter of the Inhibition Zone: no activity
C. albicans (ATCC 10231) [4]
  Mean Diameter of the Inhibition Zone: 13.0 ± 0.20 mm

## Cc1cc(C=Cc2ccc(Cl)cc2)c(C#N)c(=O)n1-c1ccc(S(=O)(=O)NC(=N)N)cc1 [Compound 9a, N-Carbamimidoyl-4-(4-(4-chlorostyryl)-3-cyano-6-methyl-2-oxopyridin-1(2H)-yl) benzene-sulfonamide]
E. coli ATCC 25922
  Mean Diameter of the Inhibition Zone: 18 ± 0.30 mm
S. aureus ATCC 29213
  Mean Diameter of the Inhibition Zone: 17 ± 0.78 mm
S. typhi ATCC 6539
  Mean Diameter of the Inhibition Zone: 14 ± 0.52 mm
E. faecalis ATCC 29212
  Mean Diameter of the Inhibition Zone: 25 ± 0.11 mm
B. subtilis ATCC 6633
  Mean Diameter of the Inhibition Zone: 22 ± 0.41 mm
[3]
  Mean Diameter of the Inhibition Zone: no activity
C. albicans (ATCC 10231) [4]
  Mean Diameter of the Inhibition Zone: 19 ± 0.65 mm

## COc1ccc(C=Cc2cc(C)n(-c3ccc(S(=O)(=O)NC(=N)N)cc3)c(=O)c2C#N)cc1 [Compound 9b, N-Carbamimidoyl-4-(3-cyano-4-(4-methoxystyryl)-6-methyl-2-oxopyridin-1(2H)-yl) benzene sulfonamide]
E. coli ATCC 25922
  Mean Diameter of the Inhibition Zone: 22 ± 0.81 mm
S. aureus ATCC 29213
  Mean Diameter of the Inhibition Zone: 23 ± 0.12 mm
S. typhi ATCC 6539
  Mean Diameter of the Inhibition Zone: 20 ± 0.16 mm
P. aeruginosa ATCC 27853
  Mean Diameter of the Inhibition Zone: 16 ± 0.20 mm
E. faecalis ATCC 29212
  Mean Diameter of the Inhibition Zone: 21 ± 0.55 mm
B. subtilis ATCC 6633
  Mean Diameter of the Inhibition Zone: 23 ± 0.50 mm
[3]
  Mean Diameter of the Inhibition Zone: 15 ± 0.15 mm
C. albicans (ATCC 10231) [4]
  Mean Diameter of the Inhibition Zone: 17 ± 0.56 mm

## Cc1cc2csc(N)c2c(=O)n1-c1ccc(S(=O)(=O)NC(=N)N)cc1 [Compound 10, 4-(3-Amino-6-methyl-4-oxothieno[3,4-c]pyridin-5(4H)-yl)-N-carbamimidoylbenzenesulfon-amide]
E. coli ATCC 25922
  Mean Diameter of the Inhibition Zone: 20 ± 0.43 mm
S. aureus ATCC 29213
  Mean Diameter of the Inhibition Zone: 17 ± 0.48 mm
S. typhi ATCC 6539
  Mean Diameter of the Inhibition Zone: 12 ± 0.35 mm
P. aeruginosa ATCC 27853
  Mean Diameter of the Inhibition Zone: 21 ± 0.54 mm
E. faecalis ATCC 29212
  Mean Diameter of the Inhibition Zone: 19 ± 0.63 mm
B. subtilis ATCC 6633
  Mean Diameter of the Inhibition Zone: 14 ± 0.56 mm
[3]
  Mean Diameter of the Inhibition Zone: 16 ± 0.86 mm
C. albicans (ATCC 10231) [4]
  Mean Diameter of the Inhibition Zone: 14 ± 0.45 mm

## N#Cc1c(N)n(-c2ccc(S(=O)(=O)NC(=N)N)cc2)c(=O)c2c(=N)oc3ccccc3c12 [Compound 12, 4-(2-Amino-1-cyano-5-imino-4-oxo-4H-chromeno[3,4-c]pyridin-3(5H)-yl)-N-cabamimidoylbenzenesulfonamide]
other
  melting point: 266 to 268 °C
E. coli ATCC 25922
  Mean Diameter of the Inhibition Zone: 14 ± 0.21 mm
E. faecalis ATCC 29212
  Mean Diameter of the Inhibition Zone: 12 ± 0.74 mm
B. subtilis ATCC 6633
  Mean Diameter of the Inhibition Zone: 15 ± 0.45 mm
[3]
  Mean Diameter of the Inhibition Zone: no activity
C. albicans (ATCC 10231) [4]
  Mean Diameter of the Inhibition Zone: 12 ± 0.50 mm
